# Where no end group is shown, it is not given here.
# Key:
# FGFR1C = molecular target: T1, FGFR1C (Homo sapiens, UniProt P11362); assay: SPR detection of interaction with FGFR1C; assay type: binding
# T1 sequence (P11362 22-376 limits assumed): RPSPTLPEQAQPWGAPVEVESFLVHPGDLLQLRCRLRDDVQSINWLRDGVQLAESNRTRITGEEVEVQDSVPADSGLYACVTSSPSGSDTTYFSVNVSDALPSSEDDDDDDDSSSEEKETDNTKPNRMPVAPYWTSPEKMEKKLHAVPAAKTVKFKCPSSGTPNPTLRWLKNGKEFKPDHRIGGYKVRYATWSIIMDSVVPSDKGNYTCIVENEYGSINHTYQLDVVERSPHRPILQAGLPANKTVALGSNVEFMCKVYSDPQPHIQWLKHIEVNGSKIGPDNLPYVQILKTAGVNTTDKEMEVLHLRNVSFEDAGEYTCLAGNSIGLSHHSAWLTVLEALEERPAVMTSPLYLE
# Procedure: Amino acid sequence of P9 degraded short peptide P48 was analyzed using Amber11 program. An initial structure of the P9 and P48 peptide chains was constructed using a sequence command in a Tleap module of the Amber11 program. Hydrogen atoms were added using the Tleap module of the Amber11 program, a […] TIP3P solvent box was added at a distance of 10 Å from the peptide chain, and counter ions were added to the two systems to keep the system electrically neutral. The system was subjected to 20-ns NPT system simulation to obtain an optimal spatial structure. […] The last 1 ns of trajectory obtained by molecular dynamics simulation of the system was selected to calculate the binding free energy, the molecules of the solvent of water and counter ion were deleted, and conformation was recorded every 10 ps to obtain a total of 101 structures. The binding free energy between FGF2 and FGFR1 were calculated by a molecular mechanics-generalized born surface area (MM-GBSA) method. The binding free energy and energy decomposition of amino acid residues were calculated using an MMPBA.py script provided by the Amber11. […] After bFGF and FGFR1 flew into the sensor chip, P48 (50 μM, 100 μM, 200 μM, 300 μM and 400 μM) was injected into a sensor surface, and the obtained data was analyzed using BIAevaluation software. […]
# PLCy = assay: Western blot of FGFR1 downstream protein PLCy in MEF-WT cells; assay type: cell-based; settings: bFGF stimulation 15 min
# Procedure: (§1) Human embryonic kidney cells HEK-293, fibroblasts MEF-WT and Balb/c 3T3 were inoculated into 6-well plates, respectively. After growing adherently overnight, the cells were pretreated with P48 for 10 min or with AZD4547/PD173074/SSR for 2 h, and incubated with bFGF for 15 min. […] The experimental procedure was as follows: MEF-WT and MEFKO (FGFR1-FGFR2-FRS2a) cells (1×10^6 cells/ml) were inoculated in a 35 mm petri dish. After being adhered to the wall of petri dish overnight, the cells were washed with PBS; FITC-conjugated P48 (1, 10, 100 and 1000 nM) was added, and the cells were incubated in an incubator for 30 min. The cells were immobilized with 1% paraformaldehyde in the dark and washed with PBS. An expression level of the FITC was measured at a fluorescence channel 1 (FL-1) (530 nm), with an excitation wavelength of 488 nm. Data analysis was conducted using CellQuest software (Becton Dickinson).
# [1] = system: gastric cancer cells SGC-7901; assay: Flow cytometry cell cycle analysis of SGC-7901 cells; assay type: cell-based; settings: P48 with bFGF, 24 h
# FGFR1 = FGFR1 (Homo sapiens, UniProt P11362); assay: Flow cytometry binding of P48 to FGFR1 in SGC-7901 cells; assay type: cell-based; set-up: endogenous in cells; host or cells: Hela229; NCI-H460; SGC-7901; MGC-803
# Sequence of FGFR1 (P11362 22-822): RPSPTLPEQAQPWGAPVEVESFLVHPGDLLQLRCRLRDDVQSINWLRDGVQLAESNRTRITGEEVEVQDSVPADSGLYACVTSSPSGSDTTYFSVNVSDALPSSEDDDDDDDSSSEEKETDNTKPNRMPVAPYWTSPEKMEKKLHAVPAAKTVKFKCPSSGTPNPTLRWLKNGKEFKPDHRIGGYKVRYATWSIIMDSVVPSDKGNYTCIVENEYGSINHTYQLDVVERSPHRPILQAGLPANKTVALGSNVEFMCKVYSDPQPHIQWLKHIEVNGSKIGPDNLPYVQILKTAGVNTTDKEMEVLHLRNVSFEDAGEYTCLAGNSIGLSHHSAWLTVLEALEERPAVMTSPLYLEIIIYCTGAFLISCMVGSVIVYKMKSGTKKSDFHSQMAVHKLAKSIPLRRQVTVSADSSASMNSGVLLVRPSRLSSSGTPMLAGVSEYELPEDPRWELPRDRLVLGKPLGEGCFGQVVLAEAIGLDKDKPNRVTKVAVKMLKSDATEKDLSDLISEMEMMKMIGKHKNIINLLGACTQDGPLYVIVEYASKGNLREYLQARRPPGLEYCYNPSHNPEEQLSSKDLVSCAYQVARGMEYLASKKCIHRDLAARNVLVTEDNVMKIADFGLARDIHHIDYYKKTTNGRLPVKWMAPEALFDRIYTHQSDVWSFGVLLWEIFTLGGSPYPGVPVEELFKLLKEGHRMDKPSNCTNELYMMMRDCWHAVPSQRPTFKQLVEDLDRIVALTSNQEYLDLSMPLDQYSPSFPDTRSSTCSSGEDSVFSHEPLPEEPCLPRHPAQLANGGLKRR
# Procedure: as §1
# Cervical cancer cells Hela229, melanoma B16-F10, lung cancer cells NCI-H460, gastric cancer cells SGC-7901 and MGC-803 were inoculated into 6-well plates, respectively. After growing adherently overnight, the cells were pretreated with P48 for 10 min or with AZD4547/SSR for 2 h, and incubated with bFGF for 15 min or with KGF for 20 min.
substance,measurement,setting,value
"SPPRYPGGGS-NH2 [P48, Ser-Pro-Pro-Arg-Tyr-Pro-Gly-Gly-Gly-Ser-NH2]",binding to FGFR1C,FGFR1C,can be bound
same,rank of binding degree among FGFRs,FGFR1C,FGFR1C has the strongest binding degree
same,inhibitory effect on downstream PLCy,PLCy,no significant inhibitory effect
same,cell cycle arrest,[1],can block gastric cancer cells SGC-7901 in G0/G1 phase in a concentration-dependent manner
same,binding to the FGFR1 site of the cell membrane surface,FGFR1,desirable binding effect

# Source: patent US20240101600A1, “FIBROBLAST GROWTH FACTOR RECEPTOR (FGFR)-TARGETING ANTAGONISTIC SHORT PEPTIDE” (WENZHOU MEDICAL UNIVERSITY, priority 2019, published 2024)
